Source: patent US20080146555A1, “Uses of Kinase Inhibitors and Compositions Thereof” (GPC Biotech, Inc, priority 2004, published 2008)
pIC50: −log10 of the molar value. Where a name gives a salt, the structure may show the parent alone. Read-outs that look alike come from different tables or passages of the source.

Assays:
Lck = biological target: T1, Lck (Homo sapiens, UniProt P06239); assay: Lck kinase assay; format: biochemical
T1 construct: purchased Upstate 14-442
Protocol: • 1. Assay Buffer: 200 mM Tris-HCl pH 7.5, 0.4 mM EGTA, 0.4 mM sodium orthovanadate. • 2. Enzyme Dilution Buffer (EDB): 20 mM MOPS, pH 7.5, 1 mM EDTA, 0.01% Brij-35, 5% glycerol, 0.1% β-mercaptoethanol, 1 mg/ml BSA. • 3. Lck, active: Dilute to 10-100 ng/μl with EDB. Use 2.5 μl per assay point. • 4. Src Substrate Peptide (Catalog #12-140): Prepare a 2.5 mM stock with sterile, distilled water. Use 2.5 μl per assay point for a final concentration of 250 μM per assay. • 5. Magnesium/ATP Cocktail (Catalog #20-113): 500 μM cold ATP and 75 mM magnesium chloride in 20 mM MOPS, pH 7.2, 25 mM β-glycerophosphate, 5 mM EGTA, 1 mM Na3VO4, 1 mM dithiothreitol. • 6. [γ-^32P]ATP: Stock 1 mCi/100 μl (3000 Ci/mmol, obtained from PerkinElmer, Catalog #BLU002A). Make 10 μl aliquots (100 μCi/vial). Before starting the assay, dilute the Magnesium/ATP Cocktail 1:1 with sterile, distilled water. Then dilute an aliquot of [γ-^32P]ATP to 1 μCi/μl with 90 μl of the diluted Magnesium/ATP Cocktail. […]
• 1. Add 6.25 μl of Assay Buffer per assay. • 2. Add 2.5 μl (25-250 ng) of Lck, active. • 3. Add 2.5 μl Src Substrate peptide (250 μM). • 4. Add 3.75 μl distilled water. • 5. Add 10 μl of the diluted [γ-^32P]ATP solution. • 6. Incubate for 10 minutes at 30° C. • 7. Transfer a 20 μl aliquot onto the center of a 2 cm×2 cm P81 paper. • 8. Wash assay squares five times with 0.75% phosphoric acid for 5 minutes per wash. • 9. Wash assay squares once with acetone for 5 minutes. • 10. Transfer assay squares to a scintillation vial and add 5 ml scintillation cocktail. • 11. Read in scintillation counter. Compare cpm of enzyme samples to cpm of control samples that contain no substrate (background control).

Cdk1 = Cdk1 (Homo sapiens, UniProt P06493); assay: Cdk1 inhibition; format: biochemical
Cdk1, sequence (P06493 whole entry, species assumed): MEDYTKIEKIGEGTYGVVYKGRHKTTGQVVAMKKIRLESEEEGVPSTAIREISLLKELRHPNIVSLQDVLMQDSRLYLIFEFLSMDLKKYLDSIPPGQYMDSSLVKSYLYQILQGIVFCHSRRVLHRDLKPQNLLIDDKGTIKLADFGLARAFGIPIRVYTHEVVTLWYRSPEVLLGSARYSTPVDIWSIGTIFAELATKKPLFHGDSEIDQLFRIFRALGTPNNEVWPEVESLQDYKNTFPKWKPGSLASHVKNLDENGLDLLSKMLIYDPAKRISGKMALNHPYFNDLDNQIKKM
Cdk1, sequence (P14635 whole entry partner, species assumed): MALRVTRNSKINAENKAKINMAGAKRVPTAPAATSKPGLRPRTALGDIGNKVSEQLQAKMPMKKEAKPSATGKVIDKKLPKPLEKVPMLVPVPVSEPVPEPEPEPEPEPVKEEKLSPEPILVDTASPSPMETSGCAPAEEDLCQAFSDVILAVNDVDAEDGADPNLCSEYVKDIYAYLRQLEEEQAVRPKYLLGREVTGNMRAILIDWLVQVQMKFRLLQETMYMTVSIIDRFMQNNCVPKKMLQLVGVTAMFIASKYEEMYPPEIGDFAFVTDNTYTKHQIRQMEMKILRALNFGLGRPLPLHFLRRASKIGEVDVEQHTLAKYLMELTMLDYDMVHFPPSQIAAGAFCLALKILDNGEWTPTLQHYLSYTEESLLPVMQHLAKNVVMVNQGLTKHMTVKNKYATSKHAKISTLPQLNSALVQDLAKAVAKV
Source text: (§1) Further inhibition results for subject compounds of the invention against other CDKs and further kinases are shown in Table 5, Table II and described in Example 6.
(§2) Table 3, Table 4, Table 5 and Table II show the results obtained for inhibition of a broad range of such kinases for subject compounds of the invention.

Lyn = biological target: T2, Lyn (Homo sapiens, UniProt P07948); assay: Lyn kinase assay; format: biochemical
T2 construct: purchased Upstate 14-510
T2 sequence (P07948 whole entry): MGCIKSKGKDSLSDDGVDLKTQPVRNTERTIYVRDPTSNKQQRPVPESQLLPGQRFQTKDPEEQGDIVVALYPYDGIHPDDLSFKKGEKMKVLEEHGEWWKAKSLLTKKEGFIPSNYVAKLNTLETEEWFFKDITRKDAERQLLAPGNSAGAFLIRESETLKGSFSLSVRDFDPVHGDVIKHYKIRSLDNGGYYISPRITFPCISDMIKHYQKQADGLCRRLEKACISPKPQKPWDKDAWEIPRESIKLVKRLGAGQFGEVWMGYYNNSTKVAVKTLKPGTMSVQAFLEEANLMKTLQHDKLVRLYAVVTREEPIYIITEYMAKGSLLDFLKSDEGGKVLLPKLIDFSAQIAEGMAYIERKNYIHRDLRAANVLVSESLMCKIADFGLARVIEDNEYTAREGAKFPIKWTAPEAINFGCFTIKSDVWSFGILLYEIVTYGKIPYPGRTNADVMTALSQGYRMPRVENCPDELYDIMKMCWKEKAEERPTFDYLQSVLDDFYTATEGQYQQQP
Protocol: • 1. 10× Reaction Buffer: 500 mM Tris-HCl, pH 7.5, 1 mM EGTA, 1 mM sodium orthovanadate, 1% 2-mercaptoethanol. • 2. Enzyme Dilution Buffer (EDB): 50 mM Tris-HCl, pH 7.5, 1 mM EGTA, 0.1 mM sodium orthovanadate, 0.03% Brij-35, 0.1% 2-mercaptoethanol, 1 mg/ml BSA. • 3. Lyn, active: Dilute to 2-16 ng/μl with EDB. Use 2.5 μl per assay point. • 4. Poly(Glu-4-Tyr) (4:1): Prepare a 1 mg/ml stock. Use 2.5 μl per assay point for a final concentration of 0.1 mg/ml per assay point. • 5. [γ-^32P]ATP: Stock 1 mCi/100 μl (3000 Ci/mmol, obtained from PerkinElmer, Cat. # BLU002A). Make 10 μl aliquots (100 μCi/vial). Before starting the assay, dilute an aliquot to 1 μCi/μl with 90 μl of 75 mM MgCl2 and 500 μM cold ATP in 20 mM MOPS, pH 7.2, 25 mM β-glycerol phosphate, 5 mM EGTA, 1 mM sodium orthovanadate, 1 mM dithiothreitol.
• 1. Add 2.5 μl of 10× Reaction Buffer per assay. • 2. Add 2.5 μl of Poly (Glu-4-Tyr) (4:1). • 3. Add 2.5 μl (5-40 ng) Lyn, active. • 4. Add 7.5 μl of sterile, distilled water. • 5. Add 10 μl of the diluted [γ-^32P]ATP mixture. • 6. Incubate for 10 minutes at 30° C. • 7. Transfer a 20 μl aliquot onto the center of a 2 cm×2 cm P81 paper. • 8. Wash the assay squares three times for 5 minutes with 0.75% phosphoric acid. • 9. Wash the assay squares once for 5 minutes with acetone. • 10. Transfer the assay squares to vial and add 5 ml scintillation cocktail. • 11. Read in scintillation counter. Compare cpm of enzyme samples to cpm of control samples that contain background control.

[1] = tested on: NCI panel of 60 cell lines; assay: cells
Source text: The evaluation of compounds at the National Cancer Institute in their panel of 60 cell lines provides a wealth of information regarding efficacy in a wide range of tumor types and genetic backgrounds. Included within this panel are cell lines derived from leukemia, melanoma and cancers of the lung, colon, brain, ovary, breast, prostate and kidney. Use of this panel provides a measure of the efficacy of compounds in cells with alterations in many genes that are associated with neoplastic transformation including p53 and Her2/Neu as well as those involved in metabolism and those which confer multi-drug resistance. The data generated in these cell lines with the protocol described below can be used to evaluate the activity of compounds.
Cells were grown in RPMI-1640 10% FCS and plated in 96 well micro-titer plates at densities ranging from 5,000 to 40,000 cells/well. The plates were incubated for 24 hours at 37° C., 5% CO2 for 24 hours. Media containing twice the desired final concentration of the compound (5 doses spanning 4 logs) was prepared and 100 μl was added to each well containing 100 μl media plus cells to yield the desired final concentration. The plates were then incubated for an additional 48 hours.
The effect of the compound on cellular viability was determined with the Sulforhodamine B (SRB) assay, which measures total protein. Cells were fixed with cold TCA to a final concentration of 10% and incubated at 4° C. for 60 minutes. The supernatant was discarded and the plates were washed five times with water and air-dried. SRB solution at […] in 1% acetic acid was added to each well and the plates were incubated for 10 minutes at room temperature. The plates were washed five times with 1% acetic acid and air-dried. The bound stain was solubilized with 10 mM trizma base and the absorbance was read on a plate reader at […].

Cdk3 = Cdk3 (Homo sapiens, UniProt Q00526); assay: Cdk3 inhibition; format: biochemical
Cdk3, sequence (Q00526 whole entry, species assumed): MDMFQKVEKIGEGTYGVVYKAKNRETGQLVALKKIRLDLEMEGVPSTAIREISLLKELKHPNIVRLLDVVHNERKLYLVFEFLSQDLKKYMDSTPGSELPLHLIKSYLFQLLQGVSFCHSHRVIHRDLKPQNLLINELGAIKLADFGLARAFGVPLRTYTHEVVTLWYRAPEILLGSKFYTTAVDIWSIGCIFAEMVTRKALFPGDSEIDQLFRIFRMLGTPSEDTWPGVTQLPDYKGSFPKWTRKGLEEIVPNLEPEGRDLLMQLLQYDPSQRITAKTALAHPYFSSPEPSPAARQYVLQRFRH
Cdk3, sequence (P24864 whole entry partner, species assumed): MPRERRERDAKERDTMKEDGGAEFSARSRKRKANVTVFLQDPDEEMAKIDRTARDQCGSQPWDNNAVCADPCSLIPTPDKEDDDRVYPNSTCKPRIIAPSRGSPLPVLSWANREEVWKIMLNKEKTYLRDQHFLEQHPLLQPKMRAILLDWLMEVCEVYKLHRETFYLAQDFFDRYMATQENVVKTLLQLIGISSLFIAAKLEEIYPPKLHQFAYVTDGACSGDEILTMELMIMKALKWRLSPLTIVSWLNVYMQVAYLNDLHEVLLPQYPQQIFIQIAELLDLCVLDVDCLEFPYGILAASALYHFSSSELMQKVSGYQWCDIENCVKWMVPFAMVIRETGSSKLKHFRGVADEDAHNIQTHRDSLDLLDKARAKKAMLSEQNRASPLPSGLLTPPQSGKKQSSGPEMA
Source text: as §1, §2

DNA replication = assay: Inhibition of DNA replication; format: cell-based; details: 24 hour incubation
[2] = read-out: LCK Inhibition (IC50)
[3] = read-out: LYN Inhibition (IC50)

T1 sequence (P06239 whole entry): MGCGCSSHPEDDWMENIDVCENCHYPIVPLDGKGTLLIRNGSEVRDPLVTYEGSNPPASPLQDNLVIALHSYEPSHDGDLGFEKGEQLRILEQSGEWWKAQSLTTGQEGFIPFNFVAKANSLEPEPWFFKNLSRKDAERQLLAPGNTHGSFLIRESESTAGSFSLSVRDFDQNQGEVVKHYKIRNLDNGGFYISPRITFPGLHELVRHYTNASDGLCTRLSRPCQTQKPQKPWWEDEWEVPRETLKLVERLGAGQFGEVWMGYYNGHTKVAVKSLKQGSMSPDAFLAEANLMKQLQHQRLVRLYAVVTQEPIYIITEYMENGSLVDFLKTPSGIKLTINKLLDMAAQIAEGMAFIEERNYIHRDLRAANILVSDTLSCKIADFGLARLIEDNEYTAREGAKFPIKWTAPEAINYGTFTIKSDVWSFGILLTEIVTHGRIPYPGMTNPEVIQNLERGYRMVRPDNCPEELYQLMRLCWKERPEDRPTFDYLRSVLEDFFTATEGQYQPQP

SMILES | pIC50 (Lck; [2]) | pIC50 (Cdk1) | pIC50 (Lyn; [3]) | NCI assay Ave TGI [1] | pIC50 (Cdk3) | pIC50 (DNA replication) | pIC50 (Lck; kinase panel, 10 μM ATP, read-out: Lck (Lymphocyte kinase) IC50) | pIC50 (Lyn; kinase panel, 10 μM ATP, read-out: Lyn IC50)
CC(C)N1CCN(C(=O)COc2ccc(-c3n[nH]c4c3C(=O)c3c(NC(=O)NN5CCOCC5)cccc3-4)cc2)CC1 [Compound A37] | > 7.30 | > 7.30 | > 7.30 | 2060 nM | > 8.30 | 7.80 | – | –
COCCN1CCN(Cc2ccc(-c3n[nH]c4c3C(=O)c3c(NC(=O)NN5CCOCC5)cccc3-4)cc2)CC1 [Compound B16, N-[3-(4-{[4-(2-methoxyethyl)piperazinyl]methyl}phenyl)-4-oxoindeno[2,3-d]pyrazol-5-yl](morpholin-4-ylamino)carboxamide dihydrochloride] | > 7.30 | > 8.30 | > 7.00 | – | > 8.30 | 8.00 | > 7.00 | > 7.00
